Source: paper PMC6812009, “Covalent Aurora A regulation by the metabolic integrator coenzyme A” (Redox Biology, 2019)
Substitutions are numbered along the chain they refer to.

Tests used:
IGF-1R = IGF-1R (Homo sapiens, UniProt P08069); test: Kinase profiling screen (radioactive filter-binding assay); type: biochemical; settings: 100 μM compound, 5 μM ATP; read-out: Kinase activity, % of activity in the absence of inhibitor
In short: (§1)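 CoA, dpCoA and ADP were each tested in vitro, in duplicate, at 100 μM final concentration as part of a 117-kinase panel. Recombinant kinases were used with model substrates and optimal ATP concentrations.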

IR = IR (Homo sapiens, UniProt P06213); test: as above; type: biochemical; settings: 100 μM compound, 20 μM ATP; read-out: Kinase activity, % of activity in the absence of inhibitor
IR, sequence (P06213 28-1382): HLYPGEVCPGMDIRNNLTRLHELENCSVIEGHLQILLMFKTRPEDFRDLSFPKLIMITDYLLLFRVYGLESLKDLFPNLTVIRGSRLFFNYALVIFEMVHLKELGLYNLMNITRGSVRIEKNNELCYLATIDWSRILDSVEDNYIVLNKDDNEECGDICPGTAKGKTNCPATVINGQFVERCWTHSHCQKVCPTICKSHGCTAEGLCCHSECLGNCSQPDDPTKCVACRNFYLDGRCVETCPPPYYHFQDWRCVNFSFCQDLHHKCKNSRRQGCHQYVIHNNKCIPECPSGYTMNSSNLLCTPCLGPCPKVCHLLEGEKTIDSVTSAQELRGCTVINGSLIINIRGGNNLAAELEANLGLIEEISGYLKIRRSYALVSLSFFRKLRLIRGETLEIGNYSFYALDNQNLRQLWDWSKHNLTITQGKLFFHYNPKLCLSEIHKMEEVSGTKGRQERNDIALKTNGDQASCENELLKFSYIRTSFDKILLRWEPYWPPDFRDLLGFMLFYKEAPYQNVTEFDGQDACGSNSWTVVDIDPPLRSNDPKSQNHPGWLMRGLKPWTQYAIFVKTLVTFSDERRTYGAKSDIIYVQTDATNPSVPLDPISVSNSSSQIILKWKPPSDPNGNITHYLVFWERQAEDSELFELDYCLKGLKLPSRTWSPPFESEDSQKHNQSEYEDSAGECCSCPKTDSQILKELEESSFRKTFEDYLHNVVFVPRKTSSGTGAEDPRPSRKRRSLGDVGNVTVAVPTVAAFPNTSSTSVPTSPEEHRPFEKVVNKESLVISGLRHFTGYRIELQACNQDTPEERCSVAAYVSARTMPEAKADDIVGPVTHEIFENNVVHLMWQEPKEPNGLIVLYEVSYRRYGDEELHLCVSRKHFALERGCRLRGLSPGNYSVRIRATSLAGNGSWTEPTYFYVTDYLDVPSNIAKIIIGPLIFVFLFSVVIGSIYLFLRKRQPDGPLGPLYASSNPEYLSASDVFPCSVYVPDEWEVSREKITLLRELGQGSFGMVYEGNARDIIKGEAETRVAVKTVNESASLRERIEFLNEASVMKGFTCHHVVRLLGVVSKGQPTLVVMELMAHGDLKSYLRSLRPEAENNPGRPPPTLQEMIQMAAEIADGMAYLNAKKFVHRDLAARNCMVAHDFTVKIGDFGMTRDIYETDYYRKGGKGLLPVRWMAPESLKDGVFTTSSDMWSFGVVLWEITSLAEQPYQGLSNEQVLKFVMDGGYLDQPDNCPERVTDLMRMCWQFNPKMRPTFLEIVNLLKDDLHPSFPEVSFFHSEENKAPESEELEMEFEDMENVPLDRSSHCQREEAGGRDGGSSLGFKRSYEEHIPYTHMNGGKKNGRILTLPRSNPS
In short: as §1

IRR = IRR (Homo sapiens, UniProt P14616); test: as above; type: biochemical; settings: 100 μM compound, 5 μM ATP; read-out: Kinase activity, % of activity in the absence of inhibitor
IRR, sequence (P14616 27-1297): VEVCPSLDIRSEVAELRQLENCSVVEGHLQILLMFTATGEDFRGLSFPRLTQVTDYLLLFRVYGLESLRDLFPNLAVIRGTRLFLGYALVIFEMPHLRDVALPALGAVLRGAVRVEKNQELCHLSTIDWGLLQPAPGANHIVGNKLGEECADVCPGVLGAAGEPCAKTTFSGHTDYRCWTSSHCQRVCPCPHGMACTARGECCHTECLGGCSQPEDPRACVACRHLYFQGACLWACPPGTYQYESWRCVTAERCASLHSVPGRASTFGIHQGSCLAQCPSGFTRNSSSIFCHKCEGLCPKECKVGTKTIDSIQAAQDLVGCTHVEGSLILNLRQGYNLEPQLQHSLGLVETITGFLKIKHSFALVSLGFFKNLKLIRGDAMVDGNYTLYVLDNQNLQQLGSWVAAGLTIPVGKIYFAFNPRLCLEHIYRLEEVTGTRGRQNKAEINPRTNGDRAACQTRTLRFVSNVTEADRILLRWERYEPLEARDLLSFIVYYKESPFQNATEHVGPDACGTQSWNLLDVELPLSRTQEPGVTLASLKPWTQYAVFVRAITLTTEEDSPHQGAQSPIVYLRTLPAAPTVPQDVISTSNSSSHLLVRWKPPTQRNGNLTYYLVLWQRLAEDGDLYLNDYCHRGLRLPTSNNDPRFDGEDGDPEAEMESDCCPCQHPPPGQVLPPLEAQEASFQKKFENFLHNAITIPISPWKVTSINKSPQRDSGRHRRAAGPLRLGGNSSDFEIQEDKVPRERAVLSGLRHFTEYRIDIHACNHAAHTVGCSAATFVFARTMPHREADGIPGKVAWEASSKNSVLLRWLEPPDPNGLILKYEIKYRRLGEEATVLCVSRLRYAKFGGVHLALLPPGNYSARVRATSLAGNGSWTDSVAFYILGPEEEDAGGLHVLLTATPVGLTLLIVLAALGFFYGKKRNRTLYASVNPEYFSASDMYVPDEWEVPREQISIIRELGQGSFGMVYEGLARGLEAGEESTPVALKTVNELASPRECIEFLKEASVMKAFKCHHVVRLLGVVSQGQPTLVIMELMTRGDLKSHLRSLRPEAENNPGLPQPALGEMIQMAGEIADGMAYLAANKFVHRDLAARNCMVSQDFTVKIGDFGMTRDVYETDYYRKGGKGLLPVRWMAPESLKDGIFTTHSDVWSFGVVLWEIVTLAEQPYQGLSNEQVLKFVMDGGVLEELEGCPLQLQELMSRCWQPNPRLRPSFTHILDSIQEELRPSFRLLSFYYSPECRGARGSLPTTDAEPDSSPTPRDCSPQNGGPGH
In short: as §1

TrkA = TrkA (Homo sapiens, UniProt P04629); test: as above; type: biochemical; settings: 100 μM compound, 20 μM ATP; read-out: Kinase activity, % of activity in the absence of inhibitor
TrkA, sequence (P04629 33-796): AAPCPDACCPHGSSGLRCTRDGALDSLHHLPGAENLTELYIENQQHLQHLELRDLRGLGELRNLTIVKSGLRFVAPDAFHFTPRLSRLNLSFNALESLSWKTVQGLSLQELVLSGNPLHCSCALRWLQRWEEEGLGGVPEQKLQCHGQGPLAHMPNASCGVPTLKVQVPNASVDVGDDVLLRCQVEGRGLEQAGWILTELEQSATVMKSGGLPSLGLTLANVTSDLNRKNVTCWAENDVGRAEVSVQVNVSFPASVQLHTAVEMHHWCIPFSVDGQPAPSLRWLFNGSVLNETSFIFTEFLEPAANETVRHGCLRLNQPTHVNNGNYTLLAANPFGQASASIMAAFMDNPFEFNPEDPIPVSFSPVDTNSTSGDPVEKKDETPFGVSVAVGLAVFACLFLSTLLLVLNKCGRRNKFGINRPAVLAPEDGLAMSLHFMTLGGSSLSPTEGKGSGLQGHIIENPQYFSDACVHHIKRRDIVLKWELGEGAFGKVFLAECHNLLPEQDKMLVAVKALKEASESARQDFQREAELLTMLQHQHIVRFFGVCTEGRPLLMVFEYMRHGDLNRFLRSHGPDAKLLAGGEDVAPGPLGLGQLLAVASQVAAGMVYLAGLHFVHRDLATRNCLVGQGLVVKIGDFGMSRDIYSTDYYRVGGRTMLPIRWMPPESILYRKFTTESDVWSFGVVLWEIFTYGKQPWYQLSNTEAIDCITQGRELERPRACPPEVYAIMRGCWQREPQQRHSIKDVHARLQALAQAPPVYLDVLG
In short: as §1

Aurora B = Aurora B (Homo sapiens, UniProt Q96GD4); test: In vitro CoAlation assay; type: binding; settings: optimal Aurora A assay conditions
Aurora B, sequence (Q96GD4 whole entry): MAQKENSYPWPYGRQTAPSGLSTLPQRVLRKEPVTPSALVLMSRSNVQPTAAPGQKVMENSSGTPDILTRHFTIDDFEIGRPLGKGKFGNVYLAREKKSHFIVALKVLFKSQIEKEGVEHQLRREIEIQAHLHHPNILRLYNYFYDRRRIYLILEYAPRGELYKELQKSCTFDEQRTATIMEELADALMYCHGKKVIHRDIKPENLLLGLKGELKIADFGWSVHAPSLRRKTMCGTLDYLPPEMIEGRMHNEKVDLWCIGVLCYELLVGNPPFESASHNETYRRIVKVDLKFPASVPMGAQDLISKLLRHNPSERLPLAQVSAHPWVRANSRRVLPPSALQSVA
Method: (§2) For CoAlation assays, 0.5 μg of purified recombinant preparations of wild type and mutant forms of His-Aurora A (Cys290Ala; Cys393Ala, Cys290/393Ala, Thr217Glu) and His-Aurora B (Glu161Thr) were incubated with a mixture of oxidised and reduced forms of CoA (CoASH and CoASSCoA, 1 mM final) in 20 mM Tris-HCl, pH 7.5 for 30 min at RT. The reaction was stopped by adding SDS gel-loading buffer without DTT, but containing 10 mM NEM. To examine whether binding of the 3′-phosphate ADP moiety of CoA to the Aurora A ATP binding-pocket co-ordinates the pantetheine thiol for disulfide bond formation with Cys 290, the in vitro CoAlation assay was carried out with 100 μM CoA and increasing concentrations of ATP (0–10 mM).

[1] = target: T1, Cys290/393Ala Aurora A mutant (Homo sapiens, UniProt O14965, C290A/C393A); test: In vitro CoAlation assay; type: binding
T1 construct: made in house
T1 sequence (O14965 whole entry C290A/C393A): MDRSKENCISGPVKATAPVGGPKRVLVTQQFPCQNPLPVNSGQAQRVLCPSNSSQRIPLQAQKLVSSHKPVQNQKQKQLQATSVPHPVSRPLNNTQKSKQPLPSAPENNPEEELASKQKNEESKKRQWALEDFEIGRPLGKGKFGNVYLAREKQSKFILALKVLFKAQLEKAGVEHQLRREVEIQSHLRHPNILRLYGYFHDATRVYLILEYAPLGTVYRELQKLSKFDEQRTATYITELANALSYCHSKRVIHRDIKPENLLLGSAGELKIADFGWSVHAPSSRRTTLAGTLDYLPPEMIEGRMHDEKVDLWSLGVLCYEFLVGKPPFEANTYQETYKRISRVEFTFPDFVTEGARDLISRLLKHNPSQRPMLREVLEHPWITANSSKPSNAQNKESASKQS
Method: as §2

[2] = target: T2, Cys290Ala Aurora A mutant (Homo sapiens, UniProt O14965, C290A); test: In vitro CoAlation assay; type: binding
T2 construct: For enzyme and DSF assays, full-length human Aurora A and Aurora B and 1–43 TPX2 were produced; made in house; host or cells: E. coli BL21 (DE3) pLysS
T2 sequence (O14965 whole entry C290A): as the sequence (O14965 whole entry C290A/C393A) above, with A393C counted along it
Method: as §2

C290A Aurora A = target: T3, C290A Aurora A (Homo sapiens, UniProt O14965, C290A); test: Thermal shift assay (differential scanning fluorimetry); type: binding; settings: 5 mM ATP or 5 mM CoA
T3 construct: For enzyme and DSF assays, full-length human Aurora A and Aurora B and 1–43 TPX2 were produced; made in house; host or cells: E. coli BL21 (DE3) pLysS
T3 sequence (O14965 whole entry C290A): as the sequence (O14965 whole entry C290A/C393A) above, with A393C counted along it
Method: (§3) Asp274Asn and Thr217Glu Aurora A mutants were generated by PCR-site directed mutagenesis, expressed and purified as described previously. Cys290Ala Aurora A was generated using standard procedures, and purified as described.
(§4) Thermal-shift assays were performed with a StepOnePlus Real-Time PCR machine (Life Technologies) using Sypro-Orange dye (Invitrogen) and thermal ramping (0.3 °C in step intervals between 25 and 94 °C). All proteins were diluted to a final concentration of 5 μM in 50 mM Tris/HCl, pH 7.4 and 100 mM NaCl in the presence or absence of the indicated concentrations of ligand (final DMSO concentration no higher than 4 % v/v). CoA, dephosphoCoA or kinase inhibitors diluted from 10 mM DMSO stocks were assayed as described previously. Normalized data were processed using the Boltzmann equation to generate sigmoidal denaturation curves, and average Tm/ΔTm values calculated as previously described using GraphPad Prism software.

T217E Aurora A = target: T4, T217E Aurora A (Homo sapiens, UniProt O14965, T217E); test: as above; type: binding; settings: 5 mM ATP, 5 mM CoA or 0.1 mM MLN8237
T4 construct: For enzyme and DSF assays, full-length human Aurora A and Aurora B and 1–43 TPX2 were produced; made in house; host or cells: E. coli
T4 sequence (O14965 1-403 T217E): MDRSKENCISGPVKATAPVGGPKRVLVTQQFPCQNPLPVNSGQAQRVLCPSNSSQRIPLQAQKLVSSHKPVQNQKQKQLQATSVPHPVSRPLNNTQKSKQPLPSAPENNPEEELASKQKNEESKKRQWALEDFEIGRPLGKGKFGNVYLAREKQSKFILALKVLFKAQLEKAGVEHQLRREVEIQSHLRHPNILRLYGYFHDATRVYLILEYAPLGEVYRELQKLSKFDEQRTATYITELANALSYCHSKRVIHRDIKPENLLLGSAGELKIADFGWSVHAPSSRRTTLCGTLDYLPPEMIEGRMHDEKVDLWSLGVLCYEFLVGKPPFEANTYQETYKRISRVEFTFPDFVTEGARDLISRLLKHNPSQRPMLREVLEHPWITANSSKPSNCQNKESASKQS
Method: as §3, §4

[3] = target: T5, WT Aurora A (T288 phosphorylated, active) (Homo sapiens, UniProt O14965); test: as above; type: binding; settings: 5 mM ATP, 5 mM CoA or 0.1 mM MLN8237; for CoA dependent on non-reducing conditions
T5 construct: Bacterially expressed full-length His-Aurora A was used to determine the IC50 value for CoA; made in house; host or cells: E. coli BL21 (DE3) pLysS
T5 sequence (O14965 1-403): T4 sequence (O14965 1-403 T217E) with E217T
Method: as §3, §4

[4] = target: T6, kinase-dead D274N (inactive) Aurora A (Homo sapiens, UniProt O14965, D274N); test: as above; type: binding; settings: 5 mM ATP or 5 mM CoA; CoA DTT-dependent
T6 construct: For enzyme and DSF assays, full-length human Aurora A and Aurora B and 1–43 TPX2 were produced; 6His (N); made in house; host or cells: E. coli
T6 sequence (O14965 whole entry D274N): as the sequence (O14965 whole entry C290A/C393A) above, with D274N, A290C, A393C counted along it
Method: as §3, §4

CC(C)(COP(=O)(O)OP(=O)(O)OC[C@H]1O[C@@H](n2cnc3c(N)ncnc32)[C@H](O)[C@@H]1OP(=O)(O)O)[C@@H](O)C(=O)NCCC(=O)NCCS [CoA, Coenzyme A]
activity at 100 µM (IGF-1R): 93%
activity at 100 µM (IR): 100%
activity at 100 µM (IRR): 92%
activity at 100 µM (TrkA): 104%
In vitro CoAlation of Aurora B (Aurora B): CoAlated at an extremely low level
Covalent modification (binding) by CoA [1]: no binding was detected
Reduction of covalent modification by CoA in comparison to wild-type Aurora A [2]: > 95%
Ligand binding / thermal stabilization (C290A Aurora A): deficient in CoA-induced thermal stabilization
Ligand-induced thermal shift (T217E Aurora A): completely abolished
Change in thermal stability (ΔTm) [3]: marked change in thermal stability
Ligand interaction by thermal shift [4]: still able to interact
